Data reported in patent US10618918B2, “Substituted boronic acids as antimicrobials” (priority 2015, dated 2020).
Where two headings read alike, the source gives them in different places.

How the values were obtained:
KP1004 KPC-2 [1] = assay: Biapenem potentiation (MPC@1), strain KP1004 KPC-2; type: cell-based; conditions: minimum BLI concentration inhibiting growth with biapenem 1 μg/mL; tested up to 40 μg/mL
Description: (§1) Biapenem was present in the test medium at 1 μg/mL. […] Table 3 summarizes the BLI potency of biapenem potentiation (MPC@1) for two strains overexpressing class A (KPC) and class D (OXA-48) carbapenemases. Biapenem MIC for each strain is also shown.

KP1086 OXA-48 = assay: Biapenem potentiation (MPC@1), strain KP1086 OXA-48; type: cell-based; conditions: minimum BLI concentration inhibiting growth with biapenem 1 μg/mL; tested up to 40 μg/mL
Description: as §1

AB1053 OXA-72 = assay: Meropenem potentiation (MPC@8), strain AB1053 OXA-72; type: cell-based, Acinetobacter baumannii; conditions: for MPM MPC8 AB1053 OXA-72: minimum BLI concentration inhibiting growth with meropenem 8 μg/mL, tested up to 20 μg/mL
AB1054 OXA-23 = assay: Meropenem potentiation (MPC@8), strain AB1054 OXA-23; type: cell-based, Acinetobacter baumannii; conditions: for MPM MPC8 AB1054 OXA-23: minimum BLI concentration inhibiting growth with meropenem 8 μg/mL, tested up to 20 μg/mL
[2] = target: T1, purified class A, C and D enzymes (β-lactamases) (Acinetobacter baumannii, UniProt Q9L4P2); assay: biochemical; type: biochemical; conditions: purified OXA-23; nitrocefin (NCF) as reporter substrate
T1 construct: rows headed: Ki (OXA-23, NCF), uM; other: purified OXA-23; nitrocefin (NCF) as reporter substrate

[3] = target: purified class A, C and D enzymes (β-lactamases) (Enterobacter cloacae, UniProt P05364); assay: biochemical; type: biochemical
[4] = target: purified class A, C and D enzymes (β-lactamases) (Klebsiella pneumoniae, UniProt Q6XEC0); assay: biochemical; type: biochemical
[5] = target: purified class A, C and D enzymes (β-lactamases) (Klebsiella pneumoniae, UniProt Q9F663); assay: biochemical; type: biochemical
[6] = target: T2, purified class A, C and D enzymes (β-lactamases) (Pseudomonas aeruginosa, UniProt P24735); assay: biochemical; type: biochemical
T2 construct: rows headed: Ki (Pa-AmpC, NCF), uM; other: purified Pa-AmpC; nitrocefin (NCF) as reporter substrate

ECL1002 = assay: Aztreonam potentiation (MPC@4), strain ECL1002; conditions: minimum BLI concentration inhibiting growth with aztreonam 4 μg/mL; tested up to 40 μg/mL
ec308 SHV-5 = assay: Aztreonam potentiation (MPC@4), strain ec308 SHV-5; conditions: minimum BLI concentration inhibiting growth with aztreonam 4 μg/mL; tested up to 40 μg/mL
ec302 TEM-10 = assay: Aztreonam potentiation (MPC@4), strain ec302 TEM-10; conditions: minimum BLI concentration inhibiting growth with aztreonam 4 μg/mL; tested up to 40 μg/mL
KP1004 KPC-2 [7] = assay: Aztreonam potentiation (MPC@4), strain KP1004 KPC-2; conditions: minimum BLI concentration inhibiting growth with aztreonam 4 μg/mL; tested up to 40 μg/mL
EC1010 CMY-6 = assay: Aztreonam potentiation (MPC@4), strain EC1010 CMY-6; conditions: minimum BLI concentration inhibiting growth with aztreonam 4 μg/mL; tested up to 40 μg/mL
KP1010 SHV-12 = assay: Aztreonam potentiation (MPC@4), strain KP1010 SHV-12; conditions: minimum BLI concentration inhibiting growth with aztreonam 4 μg/mL; tested up to 40 μg/mL
KP1009 CTX-M-15 = assay: Aztreonam potentiation (MPC@4), strain KP1009 CTX-M-15; conditions: minimum BLI concentration inhibiting growth with aztreonam 4 μg/mL; tested up to 40 μg/mL
KP1005 CTX-M-14 = assay: Tigemonam potentiation (MPC@4), strain KP1005 CTX-M-14; conditions: minimum BLI concentration inhibiting growth with tigemonam 4 μg/mL; tested up to 40 μg/mL
[8] = purified OXA-48, nitrocefin (NCF) as reporter substrate
[9] = purified KPC-2, nitrocefin (NCF) as reporter substrate

N#Cc1ccc2c(c1C(=O)[O-])O[B-](O)(O)CC2.[Na+].[Na+] [Compound 54, Disodium; 8-cyano-4,4-dihydroxy-5-oxa-4-boranuidabicyclo[4.4.0]deca-1(6),7,9-triene-7-carboxylate]
BPM MPC1 KP1004 KPC-2 (KP1004 KPC-2 [1]): X (X = MPC@1 ≤ 5 μg/mL)
BPM MPC1 OXA-48 KP1086 (KP1086 OXA-48): Z (Z = MPC@1 > 20 μg/mL)
MPM MPC8 AB1053 OXA-72 (AB1053 OXA-72): Z (Z = MPC@1 > 20 μg/mL)
MPM MPC8 AB1054 OXA-23 (AB1054 OXA-23): Z (Z = MPC@1 > 20 μg/mL)
Ki [2]: 100 to 1000 nM
Ki (P99, NCF), uM [3]: Y (key: X = Ki ≤ 0.1 μM; Y = 0.1 μM < Ki ≤ 1 μM; Z = Ki > 1 μM)
Ki (OXA-48, NCF), uM [4, 8]: X (X = Ki ≤ 0.1 μM)
Ki (KPC-2, NCF), uM [5, 9]: Z (Z = Ki > 1 μM)
Ki [6]: > 1000 nM
AZT MPC4 ECL1002 (ECL1002): Z (Z = MPC@4 > 20 μg/mL)
AZT MPC4 SHV-5 ec308 (ec308 SHV-5): Z (Z = MPC@4 > 20 μg/mL)
AZT MPC4 TEM-10 ec302 (ec302 TEM-10): Z (Z = MPC@4 > 20 μg/mL)
AZT MPC4 KPC-2 KP1004 (KP1004 KPC-2 [7]): Z (Z = MPC@4 > 20 μg/mL)
AZT MPC4 CMY-6 EC1010 (EC1010 CMY-6): Y (Y = 5 μg/mL < MPC@4 ≤ 20 μg/mL)
AZT MPC4 SHV-12 KP1010 (KP1010 SHV-12): Z (Z = MPC@4 > 20 μg/mL)
AZT MPC4 CTX-M-15 KP1009 (KP1009 CTX-M-15): Z (Z = MPC@4 > 20 μg/mL)
TIG MPC4 CTX-M-14 KP1005 (KP1005 CTX-M-14): Z (Z = MPC@4 > 20 μg/mL)

C[C@@H](O)[C@H]1C(=O)N2C(C(=O)O)=C(S[C@@H]3CN[C@H](C(=O)N(C)C)C3)[C@H](C)[C@H]12 [Meropenem, reference compound]
MIC (AB1053 OXA-72; Acinetobacter baumannii, strain AB1053 OXA-72, meropenem alone): > 64 µg/mL
MIC (AB1054 OXA-23; Acinetobacter baumannii, strain AB1054 OXA-23, meropenem alone): 32 µg/mL

C[C@]1(Cn2ccnn2)[C@H](C(=O)O)N2C(=O)C[C@H]2S1(=O)=O [Tazobactam, reference compound]
BPM MPC1 KP1004 KPC-2 (KP1004 KPC-2 [1]): Z (Z = MPC@1 > 20 μg/mL)
BPM MPC1 OXA-48 KP1086 (KP1086 OXA-48): Y (Y = 5 μg/mL < MPC@1 ≤ 20 μg/mL)
Ki (OXA-48, NCF), uM [4]: Y (key: X = Ki ≤ 0.1 μM; Y = 0.1 μM < Ki ≤ 1 μM; Z = Ki > 1 μM)
Ki (KPC-2, NCF), uM [5]: Z (key: X = Ki ≤ 0.1 μM; Y = 0.1 μM < Ki ≤ 1 μM; Z = Ki > 1 μM)
AZT MPC4 ECL1002 (ECL1002): Z (Z = MPC@4 > 20 μg/mL)
AZT MPC4 SHV-5 ec308 (ec308 SHV-5): Y (Y = 5 μg/mL < MPC@4 ≤ 20 μg/mL)
AZT MPC4 TEM-10 ec302 (ec302 TEM-10): X (X = MPC@4 ≤ 5 μg/mL)
AZT MPC4 KPC-2 KP1004 (KP1004 KPC-2 [7]): Z (Z = MPC@4 > 20 μg/mL)
AZT MPC4 CMY-6 EC1010 (EC1010 CMY-6): Y (Y = 5 μg/mL < MPC@4 ≤ 20 μg/mL)
AZT MPC4 SHV-12 KP1010 (KP1010 SHV-12): X (X = MPC@4 ≤ 5 μg/mL)
AZT MPC4 CTX-M-15 KP1009 (KP1009 CTX-M-15): Y (Y = 5 μg/mL < MPC@4 ≤ 20 μg/mL)
TIG MPC4 CTX-M-14 KP1005 (KP1005 CTX-M-14): Y (Y = 5 μg/mL < MPC@4 ≤ 20 μg/mL)

C[S+]([O-])c1ccc2c(c1C(=O)[O-])O[B-](O)(O)CC2.[Na+].[Na+] (centres unmarked) [Compound 40, Disodium; 4,4-dihydroxy-8-methylsulfinyl-5-oxa-4-boranuidabicyclo[4.4.0]deca-1(6),7,9-triene-7-carboxylate]
BPM MPC1 KP1004 KPC-2 (KP1004 KPC-2 [1]): X (X = MPC@1 ≤ 5 μg/mL)
BPM MPC1 OXA-48 KP1086 (KP1086 OXA-48): X (X = MPC@1 ≤ 5 μg/mL)
MPM MPC8 AB1053 OXA-72 (AB1053 OXA-72): Z (Z = MPC@1 > 20 μg/mL)
MPM MPC8 AB1054 OXA-23 (AB1054 OXA-23): Z (Z = MPC@1 > 20 μg/mL)
Ki (P99, NCF), uM [3]: X (key: X = Ki ≤ 0.1 μM; Y = 0.1 μM < Ki ≤ 1 μM; Z = Ki > 1 μM)
Ki (OXA-48, NCF), uM [4, 8]: X (X = Ki ≤ 0.1 μM)
Ki (KPC-2, NCF), uM [5, 9]: X (X = Ki ≤ 0.1 μM)
Ki [6]: < 100 nM
AZT MPC4 ECL1002 (ECL1002): X (X = MPC@4 ≤ 5 μg/mL)
AZT MPC4 SHV-5 ec308 (ec308 SHV-5): X (X = MPC@4 ≤ 5 μg/mL)
AZT MPC4 TEM-10 ec302 (ec302 TEM-10): X (X = MPC@4 ≤ 5 μg/mL)
AZT MPC4 KPC-2 KP1004 (KP1004 KPC-2 [7]): X (X = MPC@4 ≤ 5 μg/mL)
AZT MPC4 CMY-6 EC1010 (EC1010 CMY-6): X (X = MPC@4 ≤ 5 μg/mL)
AZT MPC4 SHV-12 KP1010 (KP1010 SHV-12): X (X = MPC@4 ≤ 5 μg/mL)
AZT MPC4 CTX-M-15 KP1009 (KP1009 CTX-M-15): X (X = MPC@4 ≤ 5 μg/mL)
TIG MPC4 CTX-M-14 KP1005 (KP1005 CTX-M-14): X (X = MPC@4 ≤ 5 μg/mL)
